Laboratory results from patent publication US4230854A, “Analogues of ergot alkaloids” (Societa Farmaceutici Italia S.p.A., priority 1977, dated 1980).

Columns and labels:
[1] = system: spasmogenic effect of epinephrine on the isolated guineapig seminal vescicle; experiment: adrenergic blockade in vitro: receptor blockade against the spasmogenic effect of epinephrine on the isolated guineapig seminal vescicle; type: biochemical; conditions: concentration producing 50% inhibition of the effect of epinephrine, estimated graphically
Description: (a) receptors blockade was determined against the spasmogenic effect of
epinephrine on the isolated guineapig seminal vescicle according to
Brugger J. (Helv.Physiol. Acta 3, 117, 1945). Concentration producing 50%
inhibition of the effect of the agonist were estimated graphically for […]

[2] = system: lethal effect of 0.2 mg/Kg epinephrine; experiment: adrenergic blockade in vivo: receptor blockade in rats, protection from the lethal effect of epinephrine; conditions: Rattus norvegicus, iv, 5 min, dose protecting 50% of animals from the lethal effect of 0.2 mg/Kg epinephrine injected i.v. 5 min later, estimated graphically
Description: (b) receptor blockade was determined in rats according to Luduena F.P. et
al. (Arch. Int. Pharmacodyn CXXII, 111, 1959). ED50 is the
graphically estimated dose of antagonist protecting 50% of animals from
the lethal effect of 0.2 mg/Kg epinephrine, injected i.v. 5 min later.

[3] = acute toxicity (LD50) in mice; conditions: mouse, in vivo, iv, standard procedure
Description: (c) LD50 was determined in mice according to the standard procedure.

Row | Compound | adrenergic blockade In vitro IC50 [1] [µg/mL] | ED50 [2] [mg/kg] | LD50 [3] [mg/kg]
1 | CN1C[C@H](C(=O)N[C@]2(C)O[C@@]3(O)[C@@H]4CCCN4C(=O)[C@H](Cc4ccccc4)N3C2=O)C[C@@H]2c3cccc4[nH]cc(c34)C[C@H]21 [Dihydroergotamine, reference compound] | 0.02 | 0.08 | 118
2 | CN1C[C@H](C(=O)N[C@]2(C)O[C@@]3(O)[C@@H]4CCCN4C(=O)[C@H](Cc4ccccc4)N3C2=O)C=C2c3cccc4[nH]cc(c34)C[C@H]21 [Ergotamine, reference compound] | 0.07 | 0.2 | 70
3 | CC(C)[C@@]1(NC(=O)[C@@H]2C[C@@H]3c4cccc5[nH]cc(c45)C[C@H]3N(C)C2)O[C@@]2(O)[C@@H]3CCCN3C(=O)[C@H](Cc3ccc(Cl)cc3)N2C1=O [5'-debenzyl-5'-p-chlorobenzyl dihydroergocristine] | 0.03 | 0.02 | 190
4 | CC(C)[C@@]1(NC(=O)[C@@H]2C[C@@H]3c4cccc5[nH]cc(c45)C[C@H]3N(C)C2)O[C@@]2(O)[C@@H]3CCCN3C(=O)[C@H](Cc3ccccc3)N2C1=O [Dihydroergocristine, reference compound] | – | 0.03 | 174
5 | CN1C[C@H](C(=O)N[C@]2(C)O[C@@]3(O)[C@@H]4CCCN4C(=O)[C@H](Cc4ccc(Cl)cc4)N3C2=O)C[C@@H]2c3cccc4[nH]cc(c34)C[C@H]21 [5'-debenzyl-5'-p-chlorobenzyl dihydroergotamine] | 0.02 | 0.05 | 150
6 | CN1C[C@H](C(=O)N[C@]2(C)O[C@@]3(O)[C@@H]4CCCN4C(=O)[C@H](Cc4ccc(Cl)cc4)N3C2=O)C=C2c3cccc4[nH]cc(c34)C[C@H]21 [5'-debenzyl-5'-p-chlorobenzyl ergotamine] | 0.03 | 0.1 | 100
